Results: patent EP1820502A1, “Active substance combination comprising azolylcarbinol compounds” (LABORATORIOS DEL DR. ESTEVE, S.A., priority 2006, dated 2007)

System: mechanical allodynia/hyperalgesia in rats with unilateral ligatures of the sciatic nerve
Experiment: Randall-Selitto test (pressure thresholds for paw withdrawal and vocalization) in rats with unilateral ligatures of the sciatic nerve
Format: in vivo
Details: two weeks after sciatic nerve ligature, cizolirtine 5 mg/kg i.p., gabapentin 30 mg/kg i.p., or both 5 min apart; for pressure thresholds for triggering vocalization (analgesic effect): Figure 2; for pressure thresholds to trigger paw withdrawal (analgesic effect): ipsilateral right hindpaw, Figure 1
Protocol: Ligatures of the right sciatic nerve were made in pentobarbital (50 mg/kg i.p.)-anesthetized rats according to the classical protocol of Bennett and Xie (1988) which is well known by those skilled in the art. Sham operated animals were subjected to the same surgical procedure except that the nerve was not ligated. Prior to surgery and two weeks afterwards, rats were subjected to the Randall-Selitto test to determine the pressure thresholds for triggering withdrawal of the ipsilateral, right hindpaw and vocalization. Animals were then immediately injected with either cizolirtine (5 mg/kg i.p.), gabapentin (30 mg/kg i.p.) or both drugs. In the latter case, a 5 min interval elapsed between the injection of cizolirtine (1st) and that of gabapentin (2nd). Time 0 on the abscissa (see Figs 1 & 2) corresponded to the second injection. The Randall-Selitto test was then applied for the determination of pressure thresholds at various times up to at least 5 hours thereafter.

Row | Structure (SMILES) | pressure thresholds for triggering vocalization (analgesic effect) | pressure thresholds to trigger paw withdrawal (analgesic effect)
1 | NCC1(CC(=O)O)CCCCC1 [Gabapentin, 1-(aminomethyl) cyclohexaneacetic acid] | decrease the threshold to trigger vocalization | decrease the pressure threshold to trigger paw withdrawal
2 | CN(C)CCOC(c1ccccc1)c1ccnn1C (racemic) [Cizolirtine, (±)-N,N-dimethyl-2-((1-methyl-1H-pyrazol-5-yl)(phenyl)methoxy)ethanamine] | decrease the threshold to trigger vocalization | decrease the pressure threshold to trigger paw withdrawal
